Values of other authors in patent publication US20130225560A1, “Treatment of Cognitive Disorders with Certain Alpha-7 Nicotinic Acid Receptor Agonists in Combination with Acetylcholinesterase Inhibitors” (priority 2010, published 2013).

Legend:
[1] = system: other nicotinic receptors
[2] = target: T1, alpha-7 receptor (Homo sapiens, UniProt P36544)
[3] = system: murine model that exhibits aspects of schizophrenia; conditions: alone and in combination with clozapine; Hauser et al. 2009
[4] = target: T1, alpha-7 receptor; remark: listed apart in the source

T1 sequence (P36544 23-502): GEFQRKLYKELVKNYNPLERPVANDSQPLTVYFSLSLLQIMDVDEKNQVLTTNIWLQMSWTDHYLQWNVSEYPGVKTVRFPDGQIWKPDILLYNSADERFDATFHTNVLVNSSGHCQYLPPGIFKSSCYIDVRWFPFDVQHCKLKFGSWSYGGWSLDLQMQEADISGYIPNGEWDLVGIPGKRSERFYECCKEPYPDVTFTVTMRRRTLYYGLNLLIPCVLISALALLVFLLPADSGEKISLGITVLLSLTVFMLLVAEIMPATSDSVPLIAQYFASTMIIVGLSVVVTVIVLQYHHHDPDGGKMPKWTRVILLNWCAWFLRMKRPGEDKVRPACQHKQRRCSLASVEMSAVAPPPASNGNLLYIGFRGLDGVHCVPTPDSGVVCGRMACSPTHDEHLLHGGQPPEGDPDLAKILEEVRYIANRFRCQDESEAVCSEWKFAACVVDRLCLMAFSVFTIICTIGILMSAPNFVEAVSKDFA

In the case of `O=C(NC1C2CCN(CC2)C1Cc1cccnc1)c1cc2ccccc2o1` (centres unmarked) [TC-5619, N-[2-(pyridin-3-ylmethyl)-1-azabicyclo[2.2.2]oct-3-yl]-1-benzofuran-2-carboxamide], the “activity at other nicotinic receptors” value [1] is listed as “little or no activity”, the “agonist activity at the alpha-7 receptor” value [2] is listed as “full agonist” and the “impaired pre-pulse inhibition (PPI), models positive symptoms” value [3] is listed as “correct impaired pre-pulse inhibition (PPI)”. For the same compound, the “impaired social behavior, models negative symptoms” value [3] was “correct impaired pre-pulse inhibition (PPI) and social behavior” and the “affinity for the alpha-7 receptor” value [4] was “very high affinity”.
